Measured values as given in patent publication US11998008B2, “Pesticides and methods of controlling pests” (The State of Israel, Ministry of Agriculture & Rural …, priority 2017, dated 2024).
Where two headings read alike, the source gives them in different places.

Columns and labels:
[1] = test system: S. rolfsii; experiment: Fungicidal activity assay on PDA in sealed Petri dish (growth inhibition and mortality); format: cell-based, Sclerotinia rolfsii; conditions: for MFC: Agroathelia rolfsii, read-out: M - Mortality, minimal concentration that killed the fungus; for I - Inhibition class: 2 days; for I - Inhibition, minimal concentration that inhibited the growth: concentration to which the class above belongs
Method: (§1) Each compound was placed on a disconnected cover from an Eppendorf tube that was located in the middle of the Petri dish and a hyphae-containing plug of each test fungus was added to the culture plate. In exemplary procedures, the tested compounds trans-2-heptenal, trans-2-octenal were tested in comparison with octanal, trans-2-octen-1-ol, methyl trans-2-octenoate, trans-3-octen-2-one and 3-pentenenitrile. In addition, cyclic ketones as 2-cyclopenten-1-one, 2-cyclohexen-1-one and α-tetralone were also examined. Then, the culture plate was sealed with parafilm and incubated at room-temperature for 2 days, after which the growth of the test fungi in those dishes was compared with those in the test compound-free control dishes. At the end of the assay, the viability of each test fungus was evaluated by transferring inoculum plugs to fresh PDA plates and observing the growth that developed within the next 2 days. The test fungi used in this study included but were not limited to Alternaria alternata, Botrytis cinerea, Sclerotinia rolfsii, Penicillium digitatum, Fusarium oxysporum f. sp. radicis-cucumerinum and Rhizoctonia solani.

[2] = test system: P. digitatum; experiment: as above; format: cell-based, Penicillium digitatum; conditions: for MFC: Penicillium digitatum, read-out: M - Mortality, minimal concentration that killed the fungus; for MFC / M - Mortality, minimal concentration that killed the fungus: NA + number = still viable in the highest concentration tested (given as >); for I - Inhibition class: 2 days; for I - Inhibition, minimal concentration that inhibited the growth: concentration to which the class above belongs
Method: as §1, with “In exemplary procedures, the fungicidial activity of the compounds listed in Table 2 were examined by activity assays as follow: Petri dishes, 90 mm in diameter, with air volume of 80 mL, contained 10-12 mL of growth medium comprising potato dextrose agar (PDA) (Acumedia, Lansing, Michigan, USA) amended with tetracycline at 12 μg/mL. Each” for “Each”

[3] = test system: B. cinerea; experiment: as above; format: cell-based, Botrytis cinerea; conditions: for MFC: Botrytis cinerea, read-out: M - Mortality, minimal concentration that killed the fungus; for MFC / M - Mortality, minimal concentration that killed the fungus: NA + number = still viable in the highest concentration tested (given as >); for I - Inhibition class: 2 days; for I - Inhibition, minimal concentration that inhibited the growth: concentration to which the class above belongs
Method: as §1, with “In exemplary procedures, the fungicidial activity of the compounds listed in Table 2 were examined by activity assays as follow: Petri dishes, 90 mm in diameter, with air volume of 80 mL, contained 10-12 mL of growth medium comprising potato dextrose agar (PDA) (Acumedia, Lansing, Michigan, USA) amended with tetracycline at 12 μg/mL. Each” for “Each”

[4] = test system: A. alternata; experiment: as above; format: cell-based, Alternaria alternata; conditions: for MFC: Alternaria alternata, read-out: M - Mortality, minimal concentration that killed the fungus; for MFC / M - Mortality, minimal concentration that killed the fungus: NA + number = still viable in the highest concentration tested (given as >); for I - Inhibition class: 2 days; for I - Inhibition, minimal concentration that inhibited the growth: concentration to which the class above belongs
Method: as §1, with “In exemplary procedures, the fungicidial activity of the compounds listed in Table 2 were examined by activity assays as follow: Petri dishes, 90 mm in diameter, with air volume of 80 mL, contained 10-12 mL of growth medium comprising potato dextrose agar (PDA) (Acumedia, Lansing, Michigan, USA) amended with tetracycline at 12 μg/mL. Each” for “Each”

[5] = test system: R. solani; experiment: microbe, parasite or virus in culture; format: cell-based; conditions: R. solani; for MFC: Rhizoctonia solani, read-out: M - Mortality, minimal concentration that killed the fungus
Method: as §1

[6] = test system: F. oxysporum f. sp. radicis-cucumerium; experiment: Fungicidal activity assay on PDA in sealed Petri dish (growth inhibition and mortality); format: cell-based, Fusarium oxysporum f. sp. radicis-cucumerinum; conditions: for MFC: Fusarium oxysporum, read-out: M - Mortality, minimal concentration that killed the fungus
Method: as §1

[7] = test system: Meloidogyne javanica second stage juveniles (J2s); experiment: Nematocidal activity: viability of J2 nematodes after 2 days exposure to the compound in a sealed box; format: in vivo; conditions: for Activity: the most effective concentration: concentration to which the class of the same cell belongs
Text: In exemplary procedures, the sedentary root-knot nematode from the genus Meloidogyne javanica second stage juveniles (J2s) was propagated on greenhouse-grown nematode-susceptible tomato Lycopersicon esculentum cv. ‘Avigail 870’ (Hazera, Shikmim, Israel), and nematode eggs were bulk-extracted from the roots with 0.05% (v/v) sodium hypochlorite (NaOCl) followed by sucrose flotation and successive sievings through nylon filters of 300, 120, 60, and 30 μm mesh sizes (AD Sinun Technologies, Petach Tikvah, Israel). For hatching J2, extracted eggs were placed on 30-μm sieves (AD Sinun Technologies) in 0.01 M MES (2-(N-morpholino) ethanesulfonic acid hydrate) pH 6.5 buffer under aseptic conditions in darkness for 5 days, and hatching J2s were collected for further experiments.
Seven vials, each containing 300 J2 nematodes with 0.5 mL of 0.01 M 2-(N-morpholino)ethanesulfonic acid (MES) buffer, were exposed to cyclic ketone compounds in order to examine their nematocidal activity and reduction in viability. In addition, a humid environment in a sealed 1 L box was maintained by addition 5 ml of distilled H2O to a 50-mm Petri plate. The box was sealed after compound addition into each 50-mm Petri plate together with 5-250 mg of perlite particles and incubated for 2 days in the dark at 25±1° C. C5 and C6 saturated and α,β-unsaturated cyclic ketones were tested for their nematocidal activity. The J2 nematodes viability was examined following exposure to the cyclic ketone compounds, by a straightforward small-scale nematode extraction method, based on the traditional Baermann funnel method. Briefly, all nematode suspensions were loaded onto 30-μm (AD Sinun Technologies) filters (1.0-1.5 cm height, 1.1-2.0 cm^3 internal area), and the nematodes were washed twice with 300 μL of 0.01 M MES buffer in order to remove any residues. Then, filters holding nematodes were placed into 15 mL Falcon centrifuge tubes, each containing 900 μL of 0.01 M of MES buffer. These filters allow active passage of only living J2s while paralyzed or dead nematodes remain on top of the filter. The whole apparatus including the filter holding the nematodes and the Falcon tubes were placed in the dark for 3 h at 25±1° C. Then, the filters were removed and the viable nematodes, which were able to actively cross the filter toward the 0.01 M of MES buffer, were collected from the Falcon tube and counted using a Nematode Counting Slide (Chalex LLC, Portland, OR, USA) and a SV11 stereomicroscope (Zeiss, Jena, Germany).
Data were analyzed by the JMP 12 software package (SAS Inc., Cary, NC, USA). Mean numbers of viable J2s under various conditions were subjected to one-way analysis of variance (ANOVA), followed by the Tukey-Kramer multiple comparison test, with significance set at P<0.05.

[8] = test system: test fungi; experiment: Fungicidal activity assay on PDA, summaries over the test fungi; format: cell-based; conditions: for fungicidal activity in words: comparison within the series
Method: as §1, with “In exemplary procedures, the fungicidial activity of the compounds listed in Table 2 were examined by activity assays as follow: Petri dishes, 90 mm in diameter, with air volume of 80 mL, contained 10-12 mL of growth medium comprising potato dextrose agar (PDA) (Acumedia, Lansing, Michigan, USA) amended with tetracycline at 12 μg/mL. Each” for “Each”

[9] = S. rolfsii, NA + number = still viable in the highest concentration tested (given as >)
[10] = NA + number = still viable in the highest concentration tested (given as >)
[11] = concentration to which the class above belongs

Compound | MFC [1, 9] | MFC [2] | MFC [3] | MFC [4] | MFC [5, 10] | MFC [6, 10] | further results
CC(C)CC(=O)CC(C)C [2,6-dimethyl-4-heptanone] | 2500 µg/mL | > 2500 µg/mL | > 2500 µg/mL | > 2500 µg/mL | – | – | –
CC=CCC#N [3-pentenenitrile] | > 25 µg/mL | – | – | – | > 25 µg/mL | > 25 µg/mL | –
CCCC(=O)CCC [4-heptanone] | 2500 µg/mL | > 2500 µg/mL | 1250 µg/mL | 2500 µg/mL | – | – | –
CC(C)=CCCC(C)=CC=O [Citral] | 25 µg/mL | > 125 µg/mL | 25 µg/mL | 25 µg/mL | – | – | –
O=C1CCCCC1 [Cyclohexanone] | 500 µg/mL | – | – | – | > 250 µg/mL | > 250 µg/mL | nematocidal activity in words ([7]; comparison within the series): nematocidal effects at substantially higher concentrations
CCCCCCCCCC=O [Decanal] | > 25 µg/mL | – | – | – | > 25 µg/mL | > 25 µg/mL | –
CCOC(=O)C=Cc1ccccc1 [Ethyl cinnamate] | > 1250 µg/mL | > 1250 µg/mL | > 1250 µg/mL | > 1250 µg/mL | – | – | –
CC(C)=CCCC(C)=CCCC(C)=CCO [Farnesol] | > 1250 µg/mL | > 1250 µg/mL | > 1250 µg/mL | > 1250 µg/mL | – | – | –
CCCCCCCCCCCC=O [Lauric aldehyde] | – | – | – | – | – | – | I - Inhibition class ([1]; S. rolfsii): NI (<50% growth inhibition); M - Mortality, minimal concentration that killed the fungus [1, 9]: > 25 ppm; I - Inhibition, minimal concentration that inhibited the growth ([1]; S. rolfsii): 25 ppm; I - Inhibition class ([5]; 2 days): NI (<50% growth inhibition); M - Mortality, minimal concentration that killed the fungus [5, 10]: > 25 ppm; I - Inhibition, minimal concentration that inhibited the growth [5, 11]: 25 ppm; fungicidal activity in words [8]: lower activity; I - Inhibition class ([6]; 2 days): NI (<50% growth inhibition); M - Mortality, minimal concentration that killed the fungus [6, 10]: > 25 ppm; I - Inhibition, minimal concentration that inhibited the growth [6, 11]: 25 ppm
CCCCC/C=C/C(=O)OC [Methyl trans-2-octenoate] | 125 µg/mL | 125 µg/mL | 125 µg/mL | 125 µg/mL | – | – | concentration that completely inhibited the fungi growth ([8]; dependent on the fungus tested): 125 ppm
CCCCCCCCC=O [Nonanal] | 25 µg/mL | – | – | – | > 25 µg/mL | > 25 µg/mL | –
CCCCCCCC=O [Octanal] | > 25 µg/mL | – | – | – | 12.5 µg/mL | > 25 µg/mL | fungicidal activity in words [8]: less fungicidal efficiency
COc1ccc(C=O)cc1 [p-Anisaldehyde] | – | – | – | – | – | – | MFC [1]: > 1250 µg/mL
CCCCCCC/C=C/C=O [trans-2-decenal] | – | – | – | – | – | – | fungicidal activity in words [8]: lower activity
CCCC/C=C/C=O [trans-2-heptenal] | 6.25 µg/mL | 12.5 µg/mL | 125 µg/mL | 12.5 µg/mL | 12.5 µg/mL | 12.5 µg/mL | concentration that completely inhibited the fungi growth ([8]; dependent on the fungus tested): 6.25-25 ppm; concentrations at which fungi were not viable ([8]; dependent on the fungus tested): 6.25-125 ppm
CCC/C=C/C=O [trans-2-hexen-1-al] | 12.5 µg/mL | – | – | – | 12.5 µg/mL | 25 µg/mL | –
CCCCCC/C=C/C=O [trans-2-nonenal] | > 25 µg/mL | – | – | – | > 25 µg/mL | 6.25 µg/mL | –
CCCCC/C=C/CO [trans-2-octen-1-ol] | 80 µg/mL | 50 µg/mL | 500 µg/mL | 125 µg/mL | – | – | concentration that completely inhibited the fungi growth ([8]; dependent on the fungus tested): 50 ppm
CCCCC/C=C/C(=O)O [trans-2-octenoic acid] | > 125 µg/mL | > 125 µg/mL | > 125 µg/mL | > 125 µg/mL | – | – | –
CC/C=C/C=O [trans-2-pentenal] | 25 µg/mL | 25 µg/mL | 25 µg/mL | 25 µg/mL | 25 µg/mL | 25 µg/mL | –
CCCC/C=C/C(C)=O [trans-3-octen-2-one] | 50 µg/mL | 50 µg/mL | 50 µg/mL | 50 µg/mL | – | – | concentration that completely inhibited the fungi growth ([8]; dependent on the fungus tested): 50 ppm
O=C/C=C/c1ccccc1 [trans-cinnamaldehyde] | > 1250 µg/mL | – | – | – | – | – | –
R-(−)-Carvone | – | – | – | – | – | – | I - Inhibition class ([1]; S. rolfsii): MI (Medium inhibition - 76-99% of growth inhibition); M - Mortality, minimal concentration that killed the fungus [1, 9]: > 1250 ppm; I - Inhibition, minimal concentration that inhibited the growth ([1]; S. rolfsii): 125 ppm; I - Inhibition class [2]: MI (Medium inhibition - 76-99% of growth inhibition); M - Mortality, minimal concentration that killed the fungus [2]: > 1250 ppm; I - Inhibition, minimal concentration that inhibited the growth [2]: 625 ppm; I - Inhibition class [3]: MI (Medium inhibition - 76-99% of growth inhibition); M - Mortality, minimal concentration that killed the fungus [3]: > 1250 ppm; I - Inhibition, minimal concentration that inhibited the growth [3]: 25 ppm; I - Inhibition class [4]: SI (Strong inhibition - 100% of growth inhibition compared to control.); M - Mortality, minimal concentration that killed the fungus [4]: > 1250 ppm; I - Inhibition, minimal concentration that inhibited the growth [4]: 125 ppm; Activity: the most effective concentration [7]: 250 ppm
trans-2-heptanol | – | – | – | – | – | – | I - Inhibition class ([1]; S. rolfsii): SI (Strong inhibition - 100% of growth inhibition compared to control.); M - Mortality, minimal concentration that killed the fungus [1, 9]: 500 ppm; I - Inhibition, minimal concentration that inhibited the growth ([1]; S. rolfsii): 125 ppm; I - Inhibition class [2]: SI (Strong inhibition - 100% of growth inhibition compared to control.); M - Mortality, minimal concentration that killed the fungus [2]: 1250 ppm; I - Inhibition, minimal concentration that inhibited the growth [2]: 125 ppm; I - Inhibition class [3]: SI (Strong inhibition - 100% of growth inhibition compared to control.); M - Mortality, minimal concentration that killed the fungus [3]: 500 ppm; I - Inhibition, minimal concentration that inhibited the growth [3]: 125 ppm; I - Inhibition class [4]: SI (Strong inhibition - 100% of growth inhibition compared to control.); M - Mortality, minimal concentration that killed the fungus [4]: 500 ppm; I - Inhibition, minimal concentration that inhibited the growth [4]: 125 ppm; Activity: reduction in J2s viability relative to non exposed control J2s (class) ([7]; at the concentration given, 2 days incubation): L (51-75% reduction in viability); Activity: the most effective concentration [7]: 500 ppm
